The results in this text go back to patent US8569344B2, “N-piperidinyl acetamide derivatives as calcium channel blockers” (Zalicus Pharmaceuticals Ltd., priority 2008, dated 2013).

The target of test [1] is T1, human α1H T-type channels (Homo sapiens, UniProt O95180).
T1 construct: expressed in transfected cells; host or cells: HEK 293
Kind of test: T-type calcium channel block, whole cell patch clamp in HEK cells (α1H). The test is classed as cell-based. For orientation: Patch clamp records ionic current or voltage across a cell membrane.

Test [2] deals with T2, human α1G T-type channels (Homo sapiens, UniProt O43497).
T2 construct: expressed in transfected cells; host or cells: HEK 293
T2 sequence (O43497 whole entry): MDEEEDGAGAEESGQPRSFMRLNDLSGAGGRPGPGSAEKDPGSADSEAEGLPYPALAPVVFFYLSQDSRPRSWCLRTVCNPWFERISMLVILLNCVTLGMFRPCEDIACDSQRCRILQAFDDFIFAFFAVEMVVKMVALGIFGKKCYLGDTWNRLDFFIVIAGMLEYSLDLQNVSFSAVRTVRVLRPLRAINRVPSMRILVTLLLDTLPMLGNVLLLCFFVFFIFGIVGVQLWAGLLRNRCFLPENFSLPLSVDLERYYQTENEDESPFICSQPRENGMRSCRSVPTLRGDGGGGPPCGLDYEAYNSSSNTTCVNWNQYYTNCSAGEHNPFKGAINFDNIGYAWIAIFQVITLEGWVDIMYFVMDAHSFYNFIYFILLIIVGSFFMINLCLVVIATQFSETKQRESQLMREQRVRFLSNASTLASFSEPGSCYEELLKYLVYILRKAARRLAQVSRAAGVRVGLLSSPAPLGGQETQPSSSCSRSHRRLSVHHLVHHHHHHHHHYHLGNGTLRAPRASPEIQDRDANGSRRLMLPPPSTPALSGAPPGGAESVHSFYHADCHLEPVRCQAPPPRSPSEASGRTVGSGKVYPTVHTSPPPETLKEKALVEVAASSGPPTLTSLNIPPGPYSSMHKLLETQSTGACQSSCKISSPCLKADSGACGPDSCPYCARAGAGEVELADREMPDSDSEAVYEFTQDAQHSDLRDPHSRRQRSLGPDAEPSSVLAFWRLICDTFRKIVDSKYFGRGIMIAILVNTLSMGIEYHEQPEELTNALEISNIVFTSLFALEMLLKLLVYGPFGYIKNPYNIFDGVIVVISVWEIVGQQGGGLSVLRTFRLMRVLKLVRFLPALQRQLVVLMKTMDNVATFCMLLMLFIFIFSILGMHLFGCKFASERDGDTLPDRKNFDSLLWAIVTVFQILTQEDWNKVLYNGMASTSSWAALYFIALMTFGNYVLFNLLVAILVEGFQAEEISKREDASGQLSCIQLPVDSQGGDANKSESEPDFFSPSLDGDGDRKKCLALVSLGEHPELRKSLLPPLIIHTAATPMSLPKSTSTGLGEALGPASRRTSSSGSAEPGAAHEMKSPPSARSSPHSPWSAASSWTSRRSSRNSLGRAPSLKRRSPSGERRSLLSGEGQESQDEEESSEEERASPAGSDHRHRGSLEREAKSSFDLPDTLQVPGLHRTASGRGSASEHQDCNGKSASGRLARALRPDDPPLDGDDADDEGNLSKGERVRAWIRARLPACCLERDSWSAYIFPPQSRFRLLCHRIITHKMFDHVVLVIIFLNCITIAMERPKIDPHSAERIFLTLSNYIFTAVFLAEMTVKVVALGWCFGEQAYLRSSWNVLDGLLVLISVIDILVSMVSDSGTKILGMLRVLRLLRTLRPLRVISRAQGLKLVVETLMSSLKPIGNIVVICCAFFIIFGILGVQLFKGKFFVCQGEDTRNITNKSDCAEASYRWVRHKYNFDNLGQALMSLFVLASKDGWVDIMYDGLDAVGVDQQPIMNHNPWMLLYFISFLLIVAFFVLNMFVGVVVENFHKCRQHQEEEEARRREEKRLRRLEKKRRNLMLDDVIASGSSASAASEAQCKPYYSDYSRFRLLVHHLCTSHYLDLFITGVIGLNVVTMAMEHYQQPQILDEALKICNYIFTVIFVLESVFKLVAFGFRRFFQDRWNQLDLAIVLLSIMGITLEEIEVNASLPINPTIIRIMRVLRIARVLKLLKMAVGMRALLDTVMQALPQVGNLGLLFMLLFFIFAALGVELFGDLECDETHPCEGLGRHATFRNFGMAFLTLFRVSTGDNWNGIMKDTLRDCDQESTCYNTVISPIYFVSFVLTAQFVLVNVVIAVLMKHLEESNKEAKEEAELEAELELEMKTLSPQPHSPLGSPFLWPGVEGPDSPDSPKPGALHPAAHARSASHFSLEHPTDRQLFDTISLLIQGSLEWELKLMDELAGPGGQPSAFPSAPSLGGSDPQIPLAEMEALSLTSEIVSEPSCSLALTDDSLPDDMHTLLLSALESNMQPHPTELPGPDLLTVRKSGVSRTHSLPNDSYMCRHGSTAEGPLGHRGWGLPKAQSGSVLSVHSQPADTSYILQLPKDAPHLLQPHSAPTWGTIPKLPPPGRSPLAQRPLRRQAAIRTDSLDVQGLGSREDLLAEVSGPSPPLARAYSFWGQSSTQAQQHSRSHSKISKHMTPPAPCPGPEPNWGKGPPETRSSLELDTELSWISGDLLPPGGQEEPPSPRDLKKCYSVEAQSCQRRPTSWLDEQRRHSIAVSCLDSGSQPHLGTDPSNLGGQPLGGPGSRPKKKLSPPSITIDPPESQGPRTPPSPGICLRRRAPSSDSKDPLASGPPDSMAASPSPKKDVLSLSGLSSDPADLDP
Nature of the test: T-type calcium channel block, whole cell patch clamp in HEK cells (α1G). The test is classed as cell-based.

[3] abbreviates: HEK cells, patch clamp, mainly non-inactivated protocol, values above 10 μM shown as 10 μM, read-out: T-type Calcium Channel Block α1H IC50.
The mark [4] stands for this setting: HEK cells, patch clamp, mainly non-inactivated protocol, values above 10 μM shown as 10 μM, below 0.30 μM shown as 0.30 μM, read-out: T-type Calcium Channel Block α1G IC50.

Read-outs that look alike come from different tables or passages of the source.

By IC50 is commonly meant the concentration that inhibits the measured activity by half.

T1 sequence (O95180 whole entry): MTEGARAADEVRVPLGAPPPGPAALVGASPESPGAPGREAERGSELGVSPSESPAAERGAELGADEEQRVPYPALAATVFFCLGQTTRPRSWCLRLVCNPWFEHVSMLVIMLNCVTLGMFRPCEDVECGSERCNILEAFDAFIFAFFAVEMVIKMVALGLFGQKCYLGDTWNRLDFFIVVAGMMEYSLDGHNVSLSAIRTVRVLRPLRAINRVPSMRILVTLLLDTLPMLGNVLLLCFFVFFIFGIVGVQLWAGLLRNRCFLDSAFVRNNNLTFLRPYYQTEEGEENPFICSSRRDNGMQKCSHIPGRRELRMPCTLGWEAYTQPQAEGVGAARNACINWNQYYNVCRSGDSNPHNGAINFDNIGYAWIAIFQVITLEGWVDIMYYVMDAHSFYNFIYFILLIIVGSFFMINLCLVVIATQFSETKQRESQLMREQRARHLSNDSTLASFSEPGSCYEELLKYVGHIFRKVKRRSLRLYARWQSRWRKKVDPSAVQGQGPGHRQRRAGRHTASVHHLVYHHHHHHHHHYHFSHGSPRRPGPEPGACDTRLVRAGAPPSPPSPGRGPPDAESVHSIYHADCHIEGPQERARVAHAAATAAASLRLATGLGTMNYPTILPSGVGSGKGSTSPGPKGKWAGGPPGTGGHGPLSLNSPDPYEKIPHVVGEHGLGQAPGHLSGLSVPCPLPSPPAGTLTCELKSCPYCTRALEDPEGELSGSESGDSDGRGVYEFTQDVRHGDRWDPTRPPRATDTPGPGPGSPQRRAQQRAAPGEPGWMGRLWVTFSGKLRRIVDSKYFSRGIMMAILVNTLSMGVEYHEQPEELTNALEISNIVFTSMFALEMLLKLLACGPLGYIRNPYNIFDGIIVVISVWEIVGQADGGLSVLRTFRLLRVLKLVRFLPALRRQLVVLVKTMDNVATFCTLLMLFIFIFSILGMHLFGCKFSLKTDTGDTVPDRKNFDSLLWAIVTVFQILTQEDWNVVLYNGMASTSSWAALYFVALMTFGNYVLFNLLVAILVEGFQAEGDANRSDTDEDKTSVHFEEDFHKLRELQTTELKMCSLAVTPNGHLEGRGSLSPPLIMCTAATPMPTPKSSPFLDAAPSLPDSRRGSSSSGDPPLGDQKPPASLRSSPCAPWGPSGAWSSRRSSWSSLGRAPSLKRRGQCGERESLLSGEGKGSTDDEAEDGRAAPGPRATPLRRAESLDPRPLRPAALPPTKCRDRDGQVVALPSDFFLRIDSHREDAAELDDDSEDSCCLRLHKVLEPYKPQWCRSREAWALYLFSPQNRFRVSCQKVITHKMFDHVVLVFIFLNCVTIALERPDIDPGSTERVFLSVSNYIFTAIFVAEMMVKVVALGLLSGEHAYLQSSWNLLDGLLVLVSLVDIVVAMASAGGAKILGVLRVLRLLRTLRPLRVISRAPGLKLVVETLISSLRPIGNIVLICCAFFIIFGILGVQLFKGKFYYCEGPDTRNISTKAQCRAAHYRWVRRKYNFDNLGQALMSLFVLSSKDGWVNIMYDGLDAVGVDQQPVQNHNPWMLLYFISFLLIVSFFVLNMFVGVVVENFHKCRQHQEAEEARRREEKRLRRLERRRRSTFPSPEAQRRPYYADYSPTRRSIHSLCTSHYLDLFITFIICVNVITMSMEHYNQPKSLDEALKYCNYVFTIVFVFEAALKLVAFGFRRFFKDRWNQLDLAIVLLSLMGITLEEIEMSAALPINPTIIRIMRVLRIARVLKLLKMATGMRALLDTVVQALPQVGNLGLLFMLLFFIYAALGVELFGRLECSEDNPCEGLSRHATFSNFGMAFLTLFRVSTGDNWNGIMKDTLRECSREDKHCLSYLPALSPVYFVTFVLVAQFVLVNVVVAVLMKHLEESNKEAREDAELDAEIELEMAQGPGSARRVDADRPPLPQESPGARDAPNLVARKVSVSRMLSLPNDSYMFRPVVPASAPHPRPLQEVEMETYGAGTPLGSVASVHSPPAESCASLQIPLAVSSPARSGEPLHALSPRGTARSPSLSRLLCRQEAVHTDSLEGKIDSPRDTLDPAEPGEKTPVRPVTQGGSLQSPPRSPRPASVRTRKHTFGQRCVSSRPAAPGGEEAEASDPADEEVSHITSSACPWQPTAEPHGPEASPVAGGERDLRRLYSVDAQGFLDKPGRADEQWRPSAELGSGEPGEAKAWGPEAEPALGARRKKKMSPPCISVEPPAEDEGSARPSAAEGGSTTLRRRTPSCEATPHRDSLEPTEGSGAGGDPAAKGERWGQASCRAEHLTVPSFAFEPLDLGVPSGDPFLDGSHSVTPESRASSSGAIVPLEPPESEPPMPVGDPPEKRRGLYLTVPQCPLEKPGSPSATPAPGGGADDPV

On to `CC(C)(C)C1CCN(CC(=O)N2CCC(CNC(=O)c3cc(F)cc(C(F)(F)F)c3)CC2)CC1` [Compound 285, N-((1-(2-(4-tert-butylpiperidin-1-yl)acetyl)piperidin-4-yl)methyl)-3-fluoro-5-(trifluoromethyl)benzamide], for which the IC50 in test [1] (setting [3]) is greater than 10000 nM; in test [2] (setting [4]) it was 4940 nM.
The matching figures for `CCCNC(=O)CN1CCC(CNC(=O)c2cc(C(F)(F)F)cc(C(F)(F)F)c2)CC1` [Compound 345, N-((1-(2-oxo-2-(propylamino)ethyl)piperidin-4-yl)methyl)-3,5-bis(trifluoromethyl)benzamide]: 110 nM and less than 300 nM.
Take `CC.CC(F)CNC(=O)CN1CCC(CNC(=O)c2cc(F)cc(Cl)c2)CC1` (centres unmarked) [Compound 553, 3-chloro-5-fluoro-N-((1-(2-(2-fluoropropylamino)-2-oxoethyl)piperidin-4-yl)methyl)benzamide compound with ethane (1:1)]: the IC50 in test [1] amounted to 1730 nM; in test [2] it was 2520 nM.
For `COc1cc(F)cc(C(=O)NCC2CCN(CC(=O)NC3CCCC3)CC2)c1` [Compound 532, N-((1-(2-(cyclopentylamino)-2-oxoethyl)piperidin-4-yl)methyl)-3-fluoro-5-methoxybenzamide], the IC50 in test [1] (setting [3]) was 130 nM; in test [2] (setting [4]), less than 300 nM.
Turning to `O=C(CN1CCC(CNC(=O)c2cccc(OC(F)(F)F)c2)CC1)NC1CCCC1` [Compound 536, N-((1-(2-(cyclopentylamino)-2-oxoethyl)piperidin-4-yl)methyl)-3-(trifluoromethoxy)benzamide], the IC50 in test [1] (setting [3]) is 120 nM; in test [2] (setting [4]) it was less than 300 nM.
For `Cc1cc(F)cc(C(=O)NCC2CCN(CCNS(=O)(=O)C(F)(F)F)CC2)c1` [Compound 331, 3-fluoro-5-methyl-N-((1-(2-(trifluoromethylsulfonamido)ethyl)piperidin-4-yl)methyl)benzamide], in that order: greater than 10000 nM and greater than 10000 nM.
The matching figures for `CC(C)(C(=O)NCCN1CCC(CNC(=O)c2cc(F)cc(C(F)(F)F)c2)CC1)C(F)(F)F` [Compound 339, 3-fluoro-N-((1-(2-(3,3,3-trifluoro-2,2-dimethylpropanamido)ethyl)piperidin-4-yl)methyl)-5-(trifluoromethyl)benzamide]: 130 nM and less than 300 nM.
The matching figures for `COc1cc(F)cc(C(=O)NCC2CCN(CC(=O)NC(C)C)CC2)c1` [Compound 438, 3-fluoro-N-((1-(2-(isopropylamino)-2-oxoethyl)piperidin-4-yl)methyl)-5-methoxybenzamide]: 1710 nM and 3910 nM.
For the compound `CS(=O)(=O)c1cc(C(=O)NCC2CCN(CC(=O)NC3CCCC3)CC2)cc(C(F)(F)F)c1` [Compound 585, N-((1-(2-(cyclopentylamino)-2-oxoethyl)piperidin-4-yl)methyl)-3-(methylsulfonyl)-5-(trifluoromethyl)benzamide], the IC50 in test [1] (setting [3]) and in test [2] (setting [4]) was greater than 10000 nM each time.
Consider `O=C(NCC1CCN(CCNS(=O)(=O)C2CCC2)CC1)c1cc(F)cc(C(F)(F)F)c1` [Compound 306, N-((1-(2-(cyclobutanesulfonamido)ethyl)piperidin-4-yl)methyl)-3-fluoro-5-(trifluoromethyl)benzamide], for which the IC50 in test [1] (setting [3]) was determined as 390 nM; in test [2] (setting [4]), 340 nM.
For `COc1ccc(C(=O)NCC2CCN(CCNS(=O)(=O)C3CC3)CC2)cc1OC` [Compound 324, N-((1-(2-(cyclopropanesulfonamido)ethyl)piperidin-4-yl)methyl)-3,4-dimethoxybenzamide], in that order: greater than 10000 nM and greater than 10000 nM.
The matching figures for `CC(C)(C)C1CCN(CC(=O)N2CCC(CNC(=O)c3cc(C(F)(F)F)cc(C(F)(F)F)c3)CC2)CC1` [Compound 258, N-((1-(2-(4-tert-butylpiperidin-1-yl)acetyl)piperidin-4-yl)methyl)-3,5-bis(trifluoromethyl)benzamide]: 3240 nM and 1180 nM.
Take `CN(CCN1CCC(CNC(=O)c2cc(F)cc(C(F)(F)F)c2)CC1)C(=O)C(C)(C)C` [Compound 515, 3-fluoro-N-((1-(2-(N-methylpivalamido)ethyl)piperidin-4-yl)methyl)-5-(trifluoromethyl)benzamide]: the IC50 in test [1] (setting [3]) and in test [2] (setting [4]) was 310 nM throughout.
Take `O=C(NCC1CCN(CCNS(=O)(=O)C(F)(F)F)CC1)c1cc(F)cc(Cl)c1` [Compound 329, 3-chloro-5-fluoro-N-((1-(2-(trifluoromethylsulfonamido)ethyl)piperidin-4-yl)methyl)benzamide]: the IC50 was 4050 nM in test [1] (setting [3]) and 3240 nM in test [2] (setting [4]).
The matching figures for `O=C(NCC1CCN(C(=O)CN2CCC(F)(F)C2)CC1)c1cc(C(F)(F)F)cc(C(F)(F)F)c1` [Compound 226, N-((1-(2-(3,3-difluoropyrrolidin-1-yl)acetyl)piperidin-4-yl)methyl)-3,5-bis(trifluoromethyl)benzamide]: greater than 10000 nM and greater than 10000 nM.
The matching figures for `CC(C)(C)NC(=O)CN1CCC(CNC(=O)c2cc(Br)cc(C(F)(F)F)c2)CC1` [Compound 382, 3-bromo-N-((1-(2-(tert-butylamino)-2-oxoethyl)piperidin-4-yl)methyl)-5-(trifluoromethyl)benzamide]: 90 nM and less than 300 nM.
The matching figures for `CC(C)(C(=O)NCCN1CCC(CNC(=O)c2cc(C(F)(F)F)cc(C(F)(F)F)c2)CC1)C(F)(F)F` [Compound 338, N-((1-(2-(3,3,3-trifluoro-2,2-dimethylpropanamido)ethyl)piperidin-4-yl)methyl)-3,5-bis(trifluoromethyl) benzamide]: 160 nM and less than 300 nM.
For the compound `O=C(NCC1CCN(CCNS(=O)(=O)C(F)(F)F)CC1)c1ccc(C(F)(F)F)c(F)c1` [Compound 328, 3-fluoro-4-(trifluoromethyl)-N-((1-(2-(trifluoromethylsulfonamido)ethyl)piperidin-4-yl)methyl)benzamide], the IC50 stood at 1550 nM in test [1] (setting [3]) and 1030 nM in test [2] (setting [4]).
The matching figures for `O=C(NCC1CCN(CC2(NS(=O)(=O)C3CC3)CC2)CC1)c1cc(C(F)(F)F)cc(C(F)(F)F)c1` [Compound 359, N-((1-((1-(cyclopropanesulfonamido)cyclopropyl)methyl)piperidin-4-yl)methyl)-3,5-bis(trifluoromethyl)benzamide]: 490 nM and 380 nM.
In the case of `O=C(NCC1CCN(CCNC(=O)C2(C(F)(F)F)CCC2)CC1)c1cc(C(F)(F)F)cc(C(F)(F)F)c1` [Compound 434, 3,5-bis(trifluoromethyl)-N-((1-(2-(1-(trifluoromethyl)cyclobutanecarboxamido)ethyl)piperidin-4-yl)methyl)benzamide], the IC50 in test [1] (setting [3]) is 60 nM; in test [2] (setting [4]), less than 300 nM.
On to `CC(C)NC(=O)CN1CCC(CNC(=O)c2cccc(Br)c2)CC1` [Compound 441, 3-bromo-N-((1-(2-(isopropylamino)-2-oxoethyl)piperidin-4-yl)methyl)benzamide], for which the results for the IC50 in test [1] (setting [3]) and in test [2] (setting [4]) were greater than 10000 nM and 9480 nM, respectively.
The matching figures for `CC(C)S(=O)(=O)NCCN1CCC(CNC(=O)c2cccc(Cl)c2)CC1` [Compound 236, 3-chloro-N-((1-(2-(1-methylethylsulfonamido)ethyl)piperidin-4-yl)methyl)benzamide]: 1720 nM and 860 nM.
